Target: human TLR7 (Homo sapiens (Human), UniProt Q9NYK1)
Assay: HEK293-Blue-hTLR-7 cells assay (SEAP reporter)
Type: cell-based
Settings: 20 hours incubation
From the text: HEK293-Blue-hTLR-7 Cells Assay: A stable HEK293-Blue-hTLR-7 cell line was purchased from InvivoGen (Cat.#: hkb-htlr7, San Diego, Calif., USA). These cells were designed for studying the stimulation of human TLR7 by monitoring the activation of NF-κB. A SEAP (secreted embryonic alkaline phosphatase) reporter gene was placed under the control of the IFN-β minimal promoter fused to five NF-κB and AP-1-binding sites. The SEAP was induced by activating NF-κB and AP-1 via stimulating HEK-Blue hTLR7 cells with TLR7 ligands. Therefore the reporter expression was regulated by the NF-κB promoter upon stimulation of human TLR7. The cell culture supernatant SEAP reporter activity was determined using QUANTI-Blue™ kit (Cat.#: rep-qb1, Invivogen, San Diego, Ca, USA) at a wavelength of 640 nm, a detection medium that turns purple to blue in the presence of alkaline phosphatase. HEK293-Blue-hTLR7 cells were incubated at a density of 250,000˜450,000 cells/mL in a volume of 180 μL in a 96-well plate in Dulbecco's Modified Eagle's medium (DMEM) containing 4.5 g/l glucose, 50 U/ml penicillin, […] streptomycin, […] Normocin, 2 mM L-glutamine, 10% (v/v) heat-inactivated fetal bovine serum for 24 h. Then the HEK293-Blue-hTLR-7 cells were incubated with addition of 20 μL test compound in a serial dilution in the presence of final DMSO at 1% and perform incubation under 37° C. in a CO2 incubator for 20 hours. Then 20 μL of the supernatant from each well was incubated with 180 μL Quanti-blue substrate solution at 37° C. for 1-3 hours and the absorbance was read at 620˜655 nm using a spectrophotometer.

human TLR7, sequence (Q9NYK1 27-1049): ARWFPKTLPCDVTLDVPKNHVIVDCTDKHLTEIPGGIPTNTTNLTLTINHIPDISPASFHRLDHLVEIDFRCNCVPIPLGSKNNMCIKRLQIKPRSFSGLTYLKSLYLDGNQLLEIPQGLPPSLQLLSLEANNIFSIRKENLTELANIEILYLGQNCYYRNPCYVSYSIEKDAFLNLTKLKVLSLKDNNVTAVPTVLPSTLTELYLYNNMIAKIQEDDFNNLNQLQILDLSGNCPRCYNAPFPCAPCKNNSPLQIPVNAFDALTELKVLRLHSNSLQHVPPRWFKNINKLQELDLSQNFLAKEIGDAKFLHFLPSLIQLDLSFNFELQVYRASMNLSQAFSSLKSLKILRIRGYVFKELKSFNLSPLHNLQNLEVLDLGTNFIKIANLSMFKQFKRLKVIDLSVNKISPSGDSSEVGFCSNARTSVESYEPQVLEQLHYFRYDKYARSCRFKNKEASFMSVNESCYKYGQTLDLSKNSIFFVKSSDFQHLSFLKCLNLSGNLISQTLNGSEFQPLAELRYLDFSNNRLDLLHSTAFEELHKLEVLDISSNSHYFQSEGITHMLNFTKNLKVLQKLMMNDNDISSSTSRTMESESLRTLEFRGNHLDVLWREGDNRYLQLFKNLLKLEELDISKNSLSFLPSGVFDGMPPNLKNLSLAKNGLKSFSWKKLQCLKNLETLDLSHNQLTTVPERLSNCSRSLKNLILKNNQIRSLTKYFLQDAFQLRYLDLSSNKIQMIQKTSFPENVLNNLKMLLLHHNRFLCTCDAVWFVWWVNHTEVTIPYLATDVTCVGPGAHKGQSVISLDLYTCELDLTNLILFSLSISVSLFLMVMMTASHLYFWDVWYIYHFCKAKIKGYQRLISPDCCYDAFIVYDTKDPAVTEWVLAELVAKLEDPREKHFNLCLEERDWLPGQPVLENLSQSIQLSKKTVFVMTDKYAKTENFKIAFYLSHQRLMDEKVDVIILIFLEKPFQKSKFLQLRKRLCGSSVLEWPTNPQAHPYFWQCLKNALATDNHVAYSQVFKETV

EC50 | Structure (SMILES)
39 µM | CC(O)[C@@H]1C[C@@H](CO)O[C@H]1n1c(=O)sc2c(=O)[nH]c(N)nc21 (single isomer, unassigned) [Example 1-B]
156 µM | Nc1nc2c(sc(=O)n2[C@@H]2O[C@H](CO)C[C@H]2C(O)C2CC2)c(=O)[nH]1 (single isomer, unassigned) [Example 2-A]
111 µM | CCC(O)[C@@H]1C[C@@H](CO)O[C@H]1n1c(=O)sc2c(=O)[nH]c(N)nc21 (single isomer, unassigned) [Example 3-A]
205 µM | Nc1nc2c(sc(=O)n2[C@@H]2O[C@H](CO)C[C@H]2C(O)c2ccccc2)c(=O)[nH]1 (single isomer, unassigned) [Example 4-A]
111 µM | COc1ccccc1C(O)[C@@H]1C[C@@H](CO)O[C@H]1n1c(=O)sc2c(=O)[nH]c(N)nc21 (single isomer, unassigned) [Example 5-A]
79 µM | Nc1nc2c(sc(=O)n2[C@@H]2O[C@H](CO)C[C@H]2C(O)c2ccccc2Cl)c(=O)[nH]1 (single isomer, unassigned) [Example 6-A]
10.4 µM | CC[C@H](O)[C@@H]1C[C@@H]([C@H](O)c2ccccc2)[C@H](n2c(=O)sc3c(=O)[nH]c(N)nc32)O1 (single isomer, unassigned) [Example 18-A]
9.7 µM | CC[C@H](O)[C@@H]1C[C@@H]([C@H](O)c2ccccc2)[C@H](n2c(=O)sc3c(=O)[nH]c(N)nc32)O1 (single isomer, unassigned) [Example 18-B]
225 µM | Nc1nc2c(sc(=O)n2[C@@H]2O[C@H](CO)C[C@H]2[C@H](O)c2ccccn2)c(=O)[nH]1 [Example 7, 5-Amino-3-[(2R,3S,5S)-5-(hydroxymethyl)-3-[(S)-hydroxy(2-pyridyl)methyl]tetrahydrofuran-2-yl]-6H-thiazolo[4,5-d]pyrimidine-2,7-dione]
23 µM | CC(C)(O)[C@@H]1C[C@@H](CO)O[C@H]1n1c(=O)sc2c(=O)[nH]c(N)nc21 [Example 8, 5-Amino-3-[(2R,3S,5S)-5-(hydroxymethyl)-3-(1-hydroxy-1-methyl-ethyl)tetrahydrofuran-2-yl]-6H-thiazolo[4,5-d]pyrimidine-2,7-dione]
8.4 µM | CC[C@H](O)[C@@H]1C[C@@H]([C@@H](C)OC(C)=O)[C@H](n2c(=O)sc3c(=O)[nH]c(N)nc32)O1 [Example 9-A, [(1R)-1-[(2R,3S,5S)-2-(5-Amino-2,7-dioxo-6H-thiazolo[4,5-d]pyrimidin-3-yl)-5-[(1S)-1-hydroxypropyl]tetrahydrofuran-3-yl]ethyl] acetate]
9.3 µM | CC[C@H](O)[C@@H]1C[C@@H]([C@H](C)OC(C)=O)[C@H](n2c(=O)sc3c(=O)[nH]c(N)nc32)O1 [Example 9-B, [(1S)-1-[(2R,3S,5S)-2-(5-amino-2,7-dioxo-6H-thiazolo[4,5-d]pyrimidin-3-yl)-5-[(1S)-1-hydroxypropyl]tetrahydrofuran-3-yl]ethyl] acetate]
2.7 µM | CC[C@H](O)[C@@H]1C[C@@H]([C@@H](C)O)[C@H](n2c(=O)sc3c(=O)[nH]c(N)nc32)O1 [Example 10-A, 5-Amino-3-[(2R,3S,5S)-3-[(1R)-1-hydroxyethyl]-5-[(1S)-1-hydroxypropyl]tetrahydrofuran-2-yl]-6H-thiazolo[4,5-d]pyrimidine-2,7-dione]
35 µM | CC[C@H](O)[C@@H]1C[C@@H]([C@H](C)O)[C@H](n2c(=O)sc3c(=O)[nH]c(N)nc32)O1 [Example 10-B, 5-amino-3-[(2R,3S,5S)-3-[(1S)-1-hydroxyethyl]-5-[(1S)-1-hydroxypropyl]tetrahydrofuran-2-yl]-6H-thiazolo[4,5-d]pyrimidine-2,7-dione]
26 µM | CCOC(=O)O[C@H](C)[C@@H]1C[C@@H]([C@@H](O)CC)O[C@H]1n1c(=O)sc2c(=O)[nH]c(N)nc21 [Example 11, [(1R)-1-[(2R,3S,5S)-2-(5-Amino-2,7-dioxo-6H-thiazolo[4,5-d]pyrimidin-3-yl)-5-[(1S)-1-hydroxypropyl]tetrahydrofuran-3-yl]ethyl] ethyl carbonate]
6.5 µM | CC[C@H](O)[C@@H]1C[C@@H]([C@@H](C)OC(=O)c2ccccc2)[C@H](n2c(=O)sc3c(=O)[nH]c(N)nc32)O1 [Example 12, [(1R)-1-[(2R,3S,5S)-2-(5-Amino-2,7-dioxo-6H-thiazolo[4,5-d]pyrimidin-3-yl)-5-[(1S)-1-hydroxypropyl]tetrahydrofuran-3-yl]ethyl] benzoate]
36 µM | CC[C@H](O)[C@@H]1C[C@@H]([C@@H](C)OC)[C@H](n2c(=O)sc3c(=O)[nH]c(N)nc32)O1 [Example 13, 5-Amino-3-[(2R,3S,5S)-5-[(1S)-1-hydroxypropyl]-3-[(1R)-1-methoxyethyl]tetrahydrofuran-2-yl]-6H-thiazolo[4,5-d]pyrimidine-2,7-dione]
60 µM | CC[C@H](O)[C@@H]1C[C@@H]([C@@H](C)OCc2ccccc2)[C@H](n2c(=O)sc3c(=O)[nH]c(N)nc32)O1 [Example 14, 5-Amino-3-[(2R,3S,5S)-3-[(1R)-1-benzyloxyethyl]-5-[(1S)-1-hydroxypropyl]tetrahydrofuran-2-yl]-6H-thiazolo[4,5-d]pyrimidine-2,7-dione]
68 µM | C=CCO[C@H](C)[C@@H]1C[C@@H]([C@@H](O)CC)O[C@H]1n1c(=O)sc2c(=O)[nH]c(N)nc21 [Example 15, 3-[(2R,3S,5S)-3-[(1R)-1-Allyloxyethyl]-5-[(1S)-1-hydroxypropyl]tetrahydrofuran-2-yl]-5-amino-6H-thiazolo[4,5-d]pyrimidine-2,7-dione]
35 µM | CC[C@H](O)[C@@H]1C[C@@H]([C@H](C)OC)[C@H](n2c(=O)sc3c(=O)[nH]c(N)nc32)O1 [Example 16, 5-Amino-3-[(2R,3S,5S)-5-[(1S)-1-hydroxypropyl]-3-[(1S)-1-methoxyethyl]tetrahydrofuran-2-yl]-6H-thiazolo[4,5-d]pyrimidine-2,7-dione]
15 µM | CC[C@H](OC(C)=O)[C@@H]1C[C@@H]([C@@H](C)O)[C@H](n2c(=O)sc3c(=O)[nH]c(N)nc32)O1 [Example 17, [(1S)-1-[(2S,4S,5R)-5-(5-Amino-2,7-dioxo-6H-thiazolo[4,5-d]pyrimidin-3-yl)-4-[(1R)-1-hydroxyethyl]tetrahydrofuran-2-yl]propyl] acetate]
19 µM | CC[C@H](O)[C@@H]1C[C@@H](C(C)(C)OC(C)=O)[C@H](n2c(=O)sc3c(=O)[nH]c(N)nc32)O1 [Example 19, [1-[(2R,3S,5S)-2-(5-Amino-2,7-dioxo-6H-thiazolo[4,5-d]pyrimidin-3-yl)-5-[(1S)-1-hydroxypropyl]tetrahydrofuran-3-yl]-1-methyl-ethyl] acetate]
3 µM | CC[C@H](O)[C@@H]1C[C@@H](C(C)(C)O)[C@H](n2c(=O)sc3c(=O)[nH]c(N)nc32)O1 [Example 20, 5-Amino-3-[(2R,3S,5S)-3-(1-hydroxy-1-methyl-ethyl)-5-[(1S)-1-hydroxypropyl]tetrahydrofuran-2-yl]-6H-thiazolo[4,5-d]pyrimidine-2,7-dione]

From patent US10065973B2, “Substituted aminothiazolopyrimidinedione for the treatment and prophylaxis of virus infection” (Hoffmann-La Roche Inc., priority 2016, dated 2018)
